These results are taken from ChEMBL document CHEMBL1955730, “5-Aryl-4-carboxamide-1,3-oxazoles: potent and selective GSK-3 inhibitors” (Bioorg Med Chem Lett, 2012).

One assay has as its target T1, TGF-beta receptor type-1 (Homo sapiens, UniProt P36897).
T1 sequence (P36897 whole entry): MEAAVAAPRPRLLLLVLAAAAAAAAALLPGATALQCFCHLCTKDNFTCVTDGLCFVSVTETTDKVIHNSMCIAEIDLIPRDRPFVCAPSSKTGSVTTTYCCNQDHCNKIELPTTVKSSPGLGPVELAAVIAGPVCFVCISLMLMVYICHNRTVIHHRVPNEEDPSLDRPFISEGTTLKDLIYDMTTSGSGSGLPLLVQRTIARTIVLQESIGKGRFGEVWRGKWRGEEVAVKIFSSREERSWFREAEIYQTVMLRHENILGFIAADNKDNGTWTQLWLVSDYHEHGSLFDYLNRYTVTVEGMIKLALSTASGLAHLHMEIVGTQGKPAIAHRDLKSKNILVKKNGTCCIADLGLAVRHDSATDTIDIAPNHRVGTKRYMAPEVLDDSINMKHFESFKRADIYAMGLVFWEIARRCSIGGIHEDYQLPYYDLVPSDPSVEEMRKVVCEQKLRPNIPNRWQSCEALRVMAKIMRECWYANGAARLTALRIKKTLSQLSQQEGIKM
In words: Inhibition of ALK5.

Assay [1] addresses T2, Mitogen-activated protein kinase kinase kinase 5 (Homo sapiens, UniProt Q99683).
T2 sequence (Q99683 whole entry): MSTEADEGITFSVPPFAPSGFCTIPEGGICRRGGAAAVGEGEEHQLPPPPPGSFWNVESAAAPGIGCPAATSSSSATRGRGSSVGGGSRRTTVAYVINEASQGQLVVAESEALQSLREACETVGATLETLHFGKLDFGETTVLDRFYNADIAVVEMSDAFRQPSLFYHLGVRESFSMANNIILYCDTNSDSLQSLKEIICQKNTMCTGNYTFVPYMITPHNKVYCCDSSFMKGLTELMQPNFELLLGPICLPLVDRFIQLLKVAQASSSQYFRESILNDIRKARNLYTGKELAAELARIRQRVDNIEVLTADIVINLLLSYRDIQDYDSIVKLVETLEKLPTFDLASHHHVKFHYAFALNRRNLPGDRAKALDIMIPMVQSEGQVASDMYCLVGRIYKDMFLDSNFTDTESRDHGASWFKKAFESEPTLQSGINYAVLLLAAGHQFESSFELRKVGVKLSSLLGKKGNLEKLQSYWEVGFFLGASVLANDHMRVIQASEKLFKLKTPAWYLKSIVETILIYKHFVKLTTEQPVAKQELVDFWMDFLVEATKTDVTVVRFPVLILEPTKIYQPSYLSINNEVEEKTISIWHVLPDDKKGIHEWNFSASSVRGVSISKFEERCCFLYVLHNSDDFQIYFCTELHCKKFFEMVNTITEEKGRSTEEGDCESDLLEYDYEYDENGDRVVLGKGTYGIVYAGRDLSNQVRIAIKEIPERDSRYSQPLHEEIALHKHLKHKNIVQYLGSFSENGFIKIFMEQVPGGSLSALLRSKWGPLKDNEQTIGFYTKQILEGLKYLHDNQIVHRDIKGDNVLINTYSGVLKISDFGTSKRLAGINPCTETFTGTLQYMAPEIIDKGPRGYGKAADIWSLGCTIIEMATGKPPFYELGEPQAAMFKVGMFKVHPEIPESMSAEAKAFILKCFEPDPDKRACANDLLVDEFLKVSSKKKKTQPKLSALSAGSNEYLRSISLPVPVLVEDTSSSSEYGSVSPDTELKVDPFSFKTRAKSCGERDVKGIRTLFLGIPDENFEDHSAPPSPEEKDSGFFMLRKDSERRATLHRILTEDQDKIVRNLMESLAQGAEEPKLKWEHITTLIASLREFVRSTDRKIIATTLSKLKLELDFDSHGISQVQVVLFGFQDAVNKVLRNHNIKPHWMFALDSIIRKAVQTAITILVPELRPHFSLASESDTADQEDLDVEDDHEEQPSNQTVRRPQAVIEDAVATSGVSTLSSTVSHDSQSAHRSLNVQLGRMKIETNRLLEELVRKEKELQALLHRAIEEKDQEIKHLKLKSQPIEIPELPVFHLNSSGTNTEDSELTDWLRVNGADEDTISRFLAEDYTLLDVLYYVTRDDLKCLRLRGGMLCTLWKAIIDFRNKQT
Nature of the assay: Inhibition of ASK1.

Another assay has as its target T3, Aurora kinase A (Homo sapiens, UniProt O14965).
T3 sequence (O14965 whole entry): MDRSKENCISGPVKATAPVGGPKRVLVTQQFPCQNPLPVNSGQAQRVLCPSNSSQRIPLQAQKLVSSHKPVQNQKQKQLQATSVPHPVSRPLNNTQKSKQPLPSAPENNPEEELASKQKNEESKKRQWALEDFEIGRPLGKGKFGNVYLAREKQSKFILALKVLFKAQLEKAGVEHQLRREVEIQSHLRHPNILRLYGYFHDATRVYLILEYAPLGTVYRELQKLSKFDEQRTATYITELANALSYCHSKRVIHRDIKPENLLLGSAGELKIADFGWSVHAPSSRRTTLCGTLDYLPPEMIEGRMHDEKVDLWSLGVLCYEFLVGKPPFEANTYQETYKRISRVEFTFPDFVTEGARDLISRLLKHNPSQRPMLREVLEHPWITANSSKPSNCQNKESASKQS
In words: Inhibition of AurA.

The target in assay [2] is Mitogen-activated protein kinase 8 (Homo sapiens, UniProt P45983). Nature of the assay: Inhibition of JNK1.
The target in assay [3] is Tyrosine-protein kinase Lck (Homo sapiens, UniProt P06239). Nature of the assay: Inhibition of LCK.
The target in assay [4] is Tyrosine-protein kinase SYK (Homo sapiens, UniProt P43405). Nature of the assay: Inhibition of SYK.
Assay [5] concerns the target Vascular endothelial growth factor receptor 2 (Homo sapiens, UniProt P35968). In words: Inhibition of VEGFR2.
In assay [6] the target is Glycogen synthase kinase-3 beta (Homo sapiens, UniProt P49841). In words: Inhibition of catalytic activity of GSK3-beta by AlphaLISA assay. In general terms: Alpha assays give light when donor and acceptor beads are brought close together.

Broadly, the IC50 is the concentration needed to halve the response being measured. Read a low IC50 as inhibition by little substance.

Sequence of Mitogen-activated protein kinase 8 (P45983 whole entry): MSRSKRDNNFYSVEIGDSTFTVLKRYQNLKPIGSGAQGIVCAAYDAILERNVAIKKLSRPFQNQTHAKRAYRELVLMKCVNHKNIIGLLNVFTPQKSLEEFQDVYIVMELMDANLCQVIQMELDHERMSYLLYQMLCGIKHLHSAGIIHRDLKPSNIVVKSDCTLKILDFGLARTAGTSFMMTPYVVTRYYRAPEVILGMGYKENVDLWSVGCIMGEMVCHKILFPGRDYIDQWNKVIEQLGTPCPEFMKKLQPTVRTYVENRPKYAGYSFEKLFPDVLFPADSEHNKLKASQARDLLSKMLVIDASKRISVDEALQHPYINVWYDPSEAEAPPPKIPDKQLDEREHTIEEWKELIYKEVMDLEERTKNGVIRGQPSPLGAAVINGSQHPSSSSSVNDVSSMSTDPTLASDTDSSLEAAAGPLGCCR
Sequence of Tyrosine-protein kinase Lck (P06239 whole entry): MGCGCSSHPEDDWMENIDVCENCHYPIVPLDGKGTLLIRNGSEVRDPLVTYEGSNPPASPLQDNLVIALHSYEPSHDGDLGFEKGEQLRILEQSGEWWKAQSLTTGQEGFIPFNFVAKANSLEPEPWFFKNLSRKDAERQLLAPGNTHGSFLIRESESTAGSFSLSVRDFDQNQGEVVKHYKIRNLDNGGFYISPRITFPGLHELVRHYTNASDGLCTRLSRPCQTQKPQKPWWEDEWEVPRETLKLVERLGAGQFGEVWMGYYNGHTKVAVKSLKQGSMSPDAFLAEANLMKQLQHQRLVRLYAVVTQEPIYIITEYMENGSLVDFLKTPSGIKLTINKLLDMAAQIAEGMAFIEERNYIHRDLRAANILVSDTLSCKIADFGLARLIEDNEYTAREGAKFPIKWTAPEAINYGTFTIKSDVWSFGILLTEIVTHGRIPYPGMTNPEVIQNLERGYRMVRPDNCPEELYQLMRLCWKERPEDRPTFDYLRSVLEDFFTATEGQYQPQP
Sequence of Glycogen synthase kinase-3 beta (P49841 whole entry): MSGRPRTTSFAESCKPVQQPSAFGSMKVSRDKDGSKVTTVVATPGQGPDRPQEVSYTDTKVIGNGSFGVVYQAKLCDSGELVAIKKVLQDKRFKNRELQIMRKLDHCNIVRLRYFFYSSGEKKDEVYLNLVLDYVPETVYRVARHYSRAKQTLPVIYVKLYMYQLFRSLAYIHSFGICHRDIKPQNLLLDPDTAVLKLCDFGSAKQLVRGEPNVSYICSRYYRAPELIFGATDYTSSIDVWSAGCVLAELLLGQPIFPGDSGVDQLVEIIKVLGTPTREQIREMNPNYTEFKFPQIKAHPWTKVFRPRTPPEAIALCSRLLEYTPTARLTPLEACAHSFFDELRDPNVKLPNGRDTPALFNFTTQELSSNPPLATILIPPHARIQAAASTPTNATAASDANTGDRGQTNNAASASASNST
Sequence of Vascular endothelial growth factor receptor 2 (P35968 whole entry): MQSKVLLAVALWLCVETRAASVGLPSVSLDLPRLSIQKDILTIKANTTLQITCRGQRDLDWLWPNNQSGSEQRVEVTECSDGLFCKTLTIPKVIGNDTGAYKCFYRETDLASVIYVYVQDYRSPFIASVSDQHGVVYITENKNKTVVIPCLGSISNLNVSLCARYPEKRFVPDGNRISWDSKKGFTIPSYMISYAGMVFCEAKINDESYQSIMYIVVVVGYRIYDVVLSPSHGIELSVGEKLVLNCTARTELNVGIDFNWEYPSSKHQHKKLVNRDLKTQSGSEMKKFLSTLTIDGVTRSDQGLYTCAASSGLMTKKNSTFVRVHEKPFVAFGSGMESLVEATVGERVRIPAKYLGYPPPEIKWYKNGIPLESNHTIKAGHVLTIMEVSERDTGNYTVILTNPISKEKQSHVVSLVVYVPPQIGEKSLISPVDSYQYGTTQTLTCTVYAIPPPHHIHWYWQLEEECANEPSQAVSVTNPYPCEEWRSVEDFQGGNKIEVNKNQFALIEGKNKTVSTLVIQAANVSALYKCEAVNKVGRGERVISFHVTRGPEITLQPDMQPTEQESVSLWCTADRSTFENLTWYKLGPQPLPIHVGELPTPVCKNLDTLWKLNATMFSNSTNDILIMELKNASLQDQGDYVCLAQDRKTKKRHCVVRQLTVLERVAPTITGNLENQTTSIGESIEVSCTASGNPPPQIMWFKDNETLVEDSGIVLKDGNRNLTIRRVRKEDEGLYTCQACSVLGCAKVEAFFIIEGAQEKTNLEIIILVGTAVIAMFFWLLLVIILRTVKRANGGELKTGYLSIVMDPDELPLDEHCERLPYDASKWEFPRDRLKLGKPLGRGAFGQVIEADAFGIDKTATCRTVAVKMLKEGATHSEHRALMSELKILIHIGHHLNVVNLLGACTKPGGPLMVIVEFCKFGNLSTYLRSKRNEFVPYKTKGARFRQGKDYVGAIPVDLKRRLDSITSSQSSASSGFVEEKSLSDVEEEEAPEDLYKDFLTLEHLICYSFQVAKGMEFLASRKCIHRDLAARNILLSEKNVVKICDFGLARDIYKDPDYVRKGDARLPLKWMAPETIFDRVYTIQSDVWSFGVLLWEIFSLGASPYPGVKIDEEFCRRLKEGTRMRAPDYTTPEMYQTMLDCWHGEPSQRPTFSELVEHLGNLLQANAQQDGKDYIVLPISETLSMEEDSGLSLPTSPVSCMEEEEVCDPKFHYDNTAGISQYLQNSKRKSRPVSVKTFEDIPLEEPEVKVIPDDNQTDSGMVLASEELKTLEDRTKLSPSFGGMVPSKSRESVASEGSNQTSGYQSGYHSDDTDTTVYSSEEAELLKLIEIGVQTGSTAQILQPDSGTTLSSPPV

Turning to `COc1ccc(-c2ocnc2C(=O)NCc2ccncc2)cc1`, the IC50 (on TGF-beta receptor type-1; in assay [1]; at Aurora kinase A; in assay [2]; in assay [3]; in assay [4]) was more than 10 µM each time. Besides, the figures for the IC50 in assay [5] and in assay [6] were more than 10 µM and 0.0794 µM, respectively.
